Data on ten molecules can be found in ChEMBL document CHEMBL4373741, “Direct and straightforward access to substituted alkyl selenols as novel carbonic anhydrase inhibitors” (Eur J Med Chem, 2020).

Broadly, the Ki is a measure of affinity in units of concentration, obtained from inhibition or displacement.

One experiment deals with Carbonic anhydrase 9 (Homo sapiens, UniProt Q16790). The experiment in a line: Inhibition of recombinant human CA9 incubated for 15 mins by phenol red dye based stopped flow CO2 hydration assay.
For the next experiment, the target named is Carbonic anhydrase 7 (Homo sapiens, UniProt P43166). The experiment in a line: Inhibition of recombinant human CA7 incubated for 15 mins by phenol red dye based stopped flow CO2 hydration assay.
Carbonic anhydrase 7, sequence (P43166 whole entry): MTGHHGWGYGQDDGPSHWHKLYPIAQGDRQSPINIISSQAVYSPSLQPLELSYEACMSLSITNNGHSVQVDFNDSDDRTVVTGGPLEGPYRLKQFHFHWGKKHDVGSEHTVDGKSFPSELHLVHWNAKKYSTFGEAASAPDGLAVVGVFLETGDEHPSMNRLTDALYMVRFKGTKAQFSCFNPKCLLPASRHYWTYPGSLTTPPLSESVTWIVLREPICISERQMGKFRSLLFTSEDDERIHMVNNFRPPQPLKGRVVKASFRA

`CC(C)[C@@H](C[SeH])NC(=O)OC(C)(C)C`: the Ki at Carbonic anhydrase 9 is above 100 µM. With `O[C@H](CCl)C[SeH]`, the Ki on Carbonic anhydrase 7 and on Carbonic anhydrase 9 was above 100 µM in each case.

For the molecule `OC(C[SeH])COCc1ccccc1` (stereo not given), the Ki on Carbonic anhydrase 9 turned out to be 58.7 µM. On to `COc1ccc(COCC(O)C[SeH])cc1` (stereo not given), for which the inhibitory constant (Ki) at Carbonic anhydrase 7 and at Carbonic anhydrase 9 was above 100 µM in each case.

As to `Cc1ccc(S(=O)(=O)N[C@H](C[SeH])C(C)C)cc1`, the Ki on Carbonic anhydrase 9 came to 2.1 µM. Still for that read-out and setting: as for `C=CCOCC(O)C[SeH]` (stereo not given), the figure is above 100 µM.

On to `O[C@@H](CCl)C[SeH]`, for which the figures for the Ki on Carbonic anhydrase 7 and at Carbonic anhydrase 9 were above 100 µM and 60 µM, respectively. The like results for `C=CCOCC(S)C[SeH]` (stereo not given) were, in that order, above 100 µM and 38.6 µM. The matching figures for `CC[C@H](C)[C@@H](C[SeH])NS(=O)(=O)c1ccc(C)cc1`: above 100 µM and above 100 µM.

In the case of `SC(C[SeH])COCc1ccccc1` (stereo not given), the Ki at Carbonic anhydrase 9 was 6.6 µM.
